Measured values published in patent US20170000804A1, “Methods and Compositions for Inhibiting Mitochondrial Trafficking” (The Wistar Institute of Anatomy and Biology, priority 2015, published 2017).

Tests used:
PC3 cells [1] = assay: Tumor cell invasion across Matrigel-coated Transwell inserts; assay type: cell-based, human; details: for effect on tumor cell invasion in the presence of PI3K therapy: with PX-866, Matrigel, Antimycin A 30 μM, Oligomycin 2.5 μM, Rotenone 4 μM, CCCP 12.5 μM
Experimental: Tumor cell invasion: Experiments were carried out essentially as described (41). Briefly, 8 μm PET transwell migration chambers (Corning) were coated with 150 μl of 80 μg/ml Matrigel (Becton Dickinson). Tumor cells were seeded in duplicates onto the coated transwell filters at a density of 1.25×10^5 cells/well in media containing 2% FCS (FCIII, Hyclone) and media containing 20% FCS was placed in the lower chamber as chemoattractant. Cells were allowed to invade and adhere to the bottom of the plate stained in 0.5% crystal violet/methanol for 10 min, rinsed in tap water and analyzed by bright field microscopy. Digital images were batch imported into ImageJ, thresholded and analyzed with the Analyze particles function. For analysis of tumor cell invasion in 3D spheroids, tissue culture-treated 96-well plates were coated with 50 μl 1% DIFCO Agar Noble (Becton Dickinson). LN229 cells were seeded at 5,000 cells/well and allowed to form spheroids over 72 h. Spheroids were harvested, treated with PX-866 (0-10 µM) and placed in a collagen plug containing EMEM, FBS, L-Glutamine, sodium bicarbonate, and collagen type I (Gibco, 1.5 mg/ml). The collagen plug was allowed to set and 1 ml DMEM with 5% FBS was added to the top of the plug. Cell invasion was analyzed every 24 h and quantified using Image Pro Plus 7, as described^41.
Cell culture and drug treatment: Human GBM LN229, prostate adenocarcinoma PC3, lung carcinoma A549, and mouse fibroblasts NIH3T3 cells were obtained from the American Type Culture Collection (ATCC, Manassas, Va.), and maintained in culture according to the supplier's specifications. Conditioned media was prepared from exponentially growing cultures of NIH3T3 cells as previously described^41, in DMEM supplemented with 4.5 g/l D-glucose, sodium pyruvate, 10 mM HEPES and 10% FBS for 48 h. Where indicated, starvation was carried out in DMEM without glucose for 24 h. PI3K inhibitors were dissolved in DMSO at 10 mM and added to the culture media for 48 h at the following concentrations: AZD6482 at 10 μM, GCD0941 at 2 μM, BKM120 at 0.4 μM and PX-866 at 5 μM. mitoTEMPO was added to the culture media at 50-100 μM, NAC at […], Antimycin A at 30 μM, Oligomycin at 2.5 μM, Rotenone at 4 μM and CCCP at 12.5 μM. For invasions, the antioxidants, ROS scavengers, and ETC inhibitors were added to the top and bottom of the chambers at the moment of cell seeding.

PC3 cells [2] = assay: Mitochondrial localization by fluorescence microscopy; assay type: cell-based, human; details: for effect on mitochondrial repositioning to the cortical cytoskeleton in the presence of PI3K therapy: with PX-866, Antimycin A 30 μM, Oligomycin 2.5 μM, Rotenone 4 μM, CCCP 12.5 μM
Experimental: Mitochondrial localization. After the indicated transfections or treatments, cells were stained with MitoTracker Red CMXRos (100 nM, 2 h) at 37° C. After fixation with 4% formalin in PBS for 15 min at room temperature, cells were permeabilized with 0.1% Triton X-100/PBS for 5 min, washed, and incubated 30 min with 1% BSA/0.3M glycine/PBS. F-actin was stained with phalloidin Alexa488 (1:1000 dilution) for 30 min at room temperature. Slides were washed and mounted in DAPI-containing Prolong Gold mounting medium (Invitrogen). At least 7 random fields were analyzed by fluorescence microscopy in a Nikon E600 microscope. Composite images were analyzed in Image J, for each cell two lamellipodia were measured to calculate infiltration index, defined as the radial distance from nucleus to furthest mitochondrial string, normalized to the radial distance from nucleus to cell border. In parallel, all cells on the 7 fields were scored into 3 categories, according to gross localization of mitochondria: polarized, pen-nuclear, and infiltrating. For cortical mitochondria quantification, a mask was manually created around the periphery of the cell based on the F-actin channel and subsequently applied to the mitochondria channel to measure intensity at the cortical region (FIG. 8H). The intensity was normalized to total mitochondria intensity per cell and background subtracted. A minimum of 20 cells were analyzed in each independent experiment to obtain mean values. For high resolution imaging of mitochondria in MFN1-depleted cells, slides were sequentially scanned for red, green, and blue fluorescence by a Leica SP5 confocal microscope with a 63× objective and a 20× digital zoom. Full cell z stacks (about 5-8 μm) were postprocessed in Leica Application Suite Advanced Fluorescence (LAS AF) to reduce noise by applying a median filter (two iterations, radius 3) and used to generate max projections.

GBM LN229 cells = assay: Human phospho-RTK array, LN229 cells; assay type: cell-based; details: PX-866 10 μM for 48 h
Description: (§1) The position and identity of phosphorylated proteins are indicated. M, markers.

[3] = test system: patient-derived glioblastoma (GBM) organotypic cultures; assay: Kinome profiling (OpenArray real-time PCR) of GBM organotypic cultures; assay type: cell-based, human; details: PX-866 10 μM for 48 h vs vehicle
Experimental: (§2) Organotypic cultures: Short-term organotypic cultures from primary patient samples were established as described^13. Briefly, precise thick tissue slices (300 μm) were obtained by vibratome serial cutting (VT1200, Leica Microsystems, Milan, Italy), and cultured in six-well plates on organotypic inserts (Millicell PICM ORG, Merck Millipore) for up to 48 h in 1 ml of Ham-F12 complete medium supplemented with vehicle (DMSO, 2.5 μl) or pan-PI3K inhibitor […] (10 μM). At the end of the experiment, one tissue slice per condition was formalin-fixed and paraffin-embedded, and further processed for morphological and immunohistochemical analysis. An additional tissue slice was embedded in OCT, and snap-frozen for molecular or immunofluorescence studies.
Kinome profiling and bioinformatics analysis. Transcriptional changes in the human kinome following PI3K inhibition were analyzed using OpenArray real-time PCR amplification. […] The ΔΔCt method was used to calculate fold changes between sample pairs with endogenous control Ct value calculated as average among 15 endogenous controls on the array: ALAS1, B2M, CASC3, G6PD, GAPDH, GUSB, HMBS, HPRT1, IPO8, POLR2A, PPIA, RPLP0, TFRC, UBE2D2, and YWHAZ. The p values for differential expression were calculated using fold changes of 15 endogenous controls as a null distribution.

GBM organotypic cultures = assay: Human phospho-RTK array, GBM organotypic cultures; assay type: cell-based; details: primary organotypic cultures, PX-866 10 μM for 48 h
Experimental: as §1, §2

PC3 cells [4] = assay: Detection of mitochondrial superoxide in live cells (MitoSOX Red); assay type: cell-based, human; details: PX-866 48 h with mitoTEMPO
Experimental: Detection of mitochondrial superoxide in live cells. The production of superoxide by mitochondria was visualized in fluorescence microscopy using the MitoSOX™ Red reagent. Briefly, 1.5×10^4 cells were grown on high optical quality 8 well μ-slides (Ibidi) and imaged with a 40× objective on a Nikon TE300 inverted time-lapse microscope equipped with a video system containing an Evolution QEi camera and a time-lapse video cassette recorder. The atmosphere was equilibrated to 37° C. and 5% CO2 in an incubation chamber. Phase contrast and TRITC (TRITC filter cube, excitation wavelength: 532-554 nm, emission wavelength: 570-613 nm) images were captured. To quantitate superoxide levels, files were imported into Image J, masks were manually created around the periphery of the cell based on the Phase image and subsequently applied to the TRITC channel to measure intensity. A minimum of 100 cells were analyzed in each independent experiment to obtain mean values.

PC3 cells [5] = assay: Focal adhesion (FA) complexes and mitochondria dual labeling; assay type: cell-based, human; details: non-toxic concentrations of Gamitrinib (1 μM), 48 h
Experimental: Focal adhesion (FA) complexes and mitochondria dual labeling. Coverslides were coated with fibronectin (10 μg/ml in PBS) overnight at 4° C., rinsed in PBS and equilibrated at 37° C. with 500 μl of 10% FBS/RPMI. Cells were treated as indicated, tripsinized, washed with 10% FBS/RPMI and plated on fibronectin-coated slides, in the presence of Mitotracker Red CMXRos (100 nM). After 5 h, cells were fixed with 10% formalin in PBS for 15 min at room temperature, permeabilized with 0.1% Triton X-100/PBS for 5 min, washed, and FAs were labeled with primary antibodies diluted in 1% BSA/0.3M glycine/PBS, overnight at 4° C. Either one of the following antibodies were used: rabbit anti-pY925-FAK (1:50, Cell Signaling), mouse anti-Paxillin (1:100, Upstate). Next, slides were washed, incubated with secondary antibodies (1:500, Alexa Fluor 488 conjugated) for 1 h at room temperature, washed and mounted in DAPI-containing Prolong Gold mounting medium (Invitrogen). Slides were sequentially scanned for red, green and blue fluorescence in a Leica SP5 confocal microscope with a 100× objective. Libraries were imported into LASLite and a 3 step z-stack centered at the plane of focal adhesions (±0.5 μm) were used to generate 3D max projections.

[6] = test system: patient-derived GBM neurospheres; assay: GBM neurosphere formation (number and size); assay type: cell-based, human; details: Gamitrinib 5 μM plus PX-866 10 μM, 48 h
Experimental: GBM neurospheres: Fresh GBM specimens collected from consenting patients (Division of Neurosurgery, Fondazione IRCCS Ca′ Granda, Milan, Italy) were immediately processed for the isolation of stem cell-containing neurospheres. Briefly, tissues were enzymatically processed with the Tumor Dissociation Kit (Miltenyi Biotech) at 37° C. in combination with the gentleMACS™ Dissociators (Miltenyi Biotech) until achievement of single cell suspension. Then, dissociated GBM cells were grown as spheroid aggregates (neurospheres) as previously described^43 and using the NeuroCult NS-A Proliferation media (StemCell Technologies) supplemented with 20 ng/ml EGF and 10 ng/ml bFGF (Stem Cell Technologies) according to manufacturer's protocol. When pharmacological treatment was performed, neurospheres derived from five GBM patients were mechanically dissociated, stained with PKH26 (Sigma Aldrich) as described^44, and plated at a density of 1000 cells per well in 24-well plates. The intended use of the non-toxic dye PKH26 was for live cell identification and staining. […] During this interval, neurospheres were imaged every 24 h and their size (diameter) and number was assessed by direct counting using ImageJ software. PKH26 was monitored and recorded using the TRITC fluorescent filter. Experiments were performed in duplicates. […]

CC(=O)N[C@@H](CS)C(=O)O [NAC, N-acetyl cysteine]
effect on PI3K therapy-mediated tumor cell invasion (PC3 cells [1]; increasing concentrations of NAC with PX-866 48 h, Matrigel): had no effect

CC[C@H]1/C=C/C=C/C[C@@H](C)[C@H](O)[C@@](C)(O)C(=O)[C@@H](C)[C@H](O)[C@@H](C)C(=O)[C@@H](C)[C@H](O)[C@@H](C)/C=C/C(=O)O[C@@H]2[C@H](C)[C@H](CC1)O[C@]1(CC[C@H](C)[C@H](C[C@@H](C)O)O1)[C@H]2C [Oligomycin]
effect on mitochondrial repositioning to the cortical cytoskeleton in the presence of PI3K therapy (PC3 cells [2]): inhibited | effect on tumor cell invasion in the presence of PI3K therapy (PC3 cells [1]): inhibited

C=CCN(/C=C1/C(=O)O[C@H](COC)[C@@]2(C)C1=C(O)C(=O)C1=C2[C@H](OC(C)=O)C[C@]2(C)C(=O)CC[C@@H]12)CC=C [PX-866]
phosphorylation, i.e. activation of the GBM kinome (GBM LN229 cells): widespread phosphorylation | transcriptional changes of growth factor receptor pathways (kinome) [3]: transcriptional upregulation of multiple growth factor receptor pathways | phosphorylation, i.e. activation of the GBM kinome (GBM organotypic cultures): widespread phosphorylation

C=C(C)[C@H]1Cc2c(ccc3c2O[C@@H]2COc4cc(OC)c(OC)cc4[C@@H]2C3=O)O1 [Rotenone]
effect on mitochondrial repositioning to the cortical cytoskeleton in the presence of PI3K therapy (PC3 cells [2]): inhibited | effect on tumor cell invasion in the presence of PI3K therapy (PC3 cells [1]): inhibited

CC1(C)CC(NC(=O)C[P+](c2ccccc2)(c2ccccc2)c2ccccc2)CC(C)(C)N1[O] [mitoTEMPO]
effect on mitochondrial repositioning to the cortical cytoskeleton mediated by PI3K inhibitors (PC3 cells [2]; mitoTEMPO 50 μM with PI3K inhibitors): did not affect | effect on PI3K antagonist-induced mitochondrial superoxide production (PC3 cells [4]): abolished | effect on tumor cell invasion mediated by PI3K inhibitors (PC3 cells [1]; mitoTEMPO with PX-866, Matrigel): did not affect

Antimycin A
effect on mitochondrial repositioning to the cortical cytoskeleton in the presence of PI3K therapy (PC3 cells [2]): inhibited | effect on tumor cell invasion in the presence of PI3K therapy (PC3 cells [1]): inhibited

Gamitrinib
mitochondrial distribution (polarized, perinuclear, infiltrating) with PI3K inhibitors (PC3 cells [2]; Gamitrinib in combination with PI3K inhibitors): preserved a polarized and perinuclear mitochondrial distribution | effect on trafficking of mitochondria to pFAK-containing FA complexes in response to PI3K antagonists (PC3 cells [5]): abolished | effect on increase in tumor cell invasion mediated by PI3K antagonists (PC3 cells [1]; Gamitrinib with PX-866 5 μM, Matrigel): abolished the increase | effect on expansion of primary GBM neurospheres mediated by PI3K antagonists [6]: abolished

carbonyl cyanide m-chlorophenyl hydrazine [CCCP]
effect on mitochondrial repositioning to the cortical cytoskeleton in the presence of PI3K therapy (PC3 cells [2]): inhibited | effect on tumor cell invasion in the presence of PI3K therapy (PC3 cells [1]): inhibited
